Data set [1] can be described thus: fresh mouse or rat plasma. Particulars: 37° C., up to 120 min (Table 6; protocol lists up to 1440).
A short description of data set [2]: plasma after s.c. administration of 1 mg/kg Compound III; after IV administration.
A short description of data set [3]: rat kidney tissue 10 minutes post IV administration. The following applies: up to 10 minutes.
Data set [4] concerns Adriamycin (ADR)-induced proteinuria. In words: Adriamycin (ADR)-induced nephropathy model. In kind it is in vivo. The following applies: rat. The source says: Adriamycine (doxorubicin) is a drug used in chemotherapy. It is known to cause undesirable renal toxicitiy in rat, mainly glomerular damage (via podocyte injury/loss), resulting in proteinuric neophrapthy (Hakroush et al., 2014, J. Am. Soc. Nephrology, 25:927-38), and it is the prototypical model of human primary focal and segmental glomerulosclerosis. ADR-induced mephropathy, in mouse or rat, is a robust in vivo model of proteinuria that can easily and directly be measured in urine, thus allowing for monitoring of disease progression in living animals. It is induced by a single intravenous injection of ADR.
Male CD rats (aged 8 weeks) were acclimatized in the facility for at least 5 days. On Day 0, rats received Adriamycin at a dose level of 7.5 mg/kg by tail vein administration at a dose volume of 5 mL/kg. If needed, an abbocath was used for administration. The abbocath will be flushed with 0.5 mL of 0.9% saline after Adriamycin injection. […]
Once pretreatment and on pre-determined days (e.g. days 5, 10, 15, 20) blood samples (0.7 mL) was collected from the jugular vein in SST tubes and analyzed for serum creatinine and BUN. Once pretreatment and on pre-determined days (e.g. days 5, 10, 15, 20) urine samples were collected overnight from individually housed animals. After collection, serum and urine samples were processed and analyzed for creatinine (serum & urine), BUN (serum) and total protein (urine). […] The time the animals are placed in urine collection cages and time of sample collection was recorded. […]
Once pretreatment and on Day 21, blood samples (0.7 mL) were collected from the jugular vein in SST tubes and analyzed for serum creatinine and BUN. Once pretreatment and on pre-determined days (Days 5, 10, 15, 21) urine samples were collected overnight from individually housed animals. After collection, serum and urine samples were processed and analyzed for creatinine (serum & urine), BUN (serum) and total protein (urine). […] The time the animals are placed in urine collection cages and time of sample collection was recorded. […]

Another data set is described as follows: FIGURE 31 (2/2). The method, then:
Table printed on a drawing sheet, FIGURE 31 (2/2)
Peptide to internal standard peak area ratios were used calculate percentage remaining peptide at 60 minutes and 120 minutes. Peptides are identified by GPR number (GPR#) and SEQ ID NO.
First reader's note: Second part (2/2) of Figure 31, continued from the previous sheet; in the last row (GPR 478) the empty N-Terminal cell is merged with position 1.

Entries after “also recorded” stand apart in the source; their conditions may differ. No end group written: not given here.

Data on five compounds can be found in patent US20160137714A1 (Thrasos Innovation, Inc., priority 2014, published 2016).

For the compound “Cys-Tyr-Tyr-Asp-Asp-Ser-Ser-Ser-Val-Leu-Cys-Lys-Lys-D-tyr-Arg-Ser”, the not cleaved in data set [1] is reported as 94.7 percent remaining at 120 min.
Turning to “Cys-Tyr-Phe-Asp-Asp-Ser-Ser-Asn-Val-Leu-Cys-Lys-Lys-D-tyr-Arg-Ser”, the not cleaved entry in data set [2] was “prevented the proteolytic cleavage between the amino acids 14 and 15”.
On to “CYFDDSSNVLCKKYRS (cysteine pairing not given here)”, for which, in data set [3], the cleaved bond entry is recorded as “Y14-R15, major, 10 minutes” and the fragment found result is “VI (GPR-263) Cys-Tyr-Phe-Asp-Asp-Ser-Ser-Asn-Val-Leu-Cys, 10 minutes; also recorded: VIII (GPR-262) Cys-Tyr-Phe-Asp-Asp-Ser-Ser-Asn-Val-Leu-Cys-Lys, 10 minutes; also recorded: IX (GPR-261) Cys-Tyr-Phe-Asp-Asp-Ser-Ser-Asn-Val-Leu-Cys-Lys-Lys, 10 minutes”.
In the case of `CCOC(=O)[C@H](CCc1ccccc1)N[C@@H](C)C(=O)N1CCC[C@H]1C(=O)O` [Enalapril], the “ADR-induced renal lesions in H&E-stained kidney sections” value in data set [4] (21 days post ADR, treated daily, glomerular hypertrophy, protein casts, tubular dilation, neutrophils) is “absent or reduced in number”. Also, the “effect on ADR-induced proteinuria (urine protein to urine creatinine)” value in data set [4] (ADR 7.5 mg/kg, daily for 21 days, GPR-405 300 nmol/kg sc, enalapril 50 mg/kg po) was “efficacious”. The “effect on serum creatinine (sCr) and blood urea nitrogen (BUN)” value in data set [4] (following Adriamycin treatment, GPR-405 300 nmol/kg sc, enalapril 50 mg/kg po, FIG. 24) is “Neither enalapril nor GPR-405 had any marked effect”.
For the compound “Y Y F S S S F V L C K R y* R S [478 | 68]”, in “FIGURE 31 (2/2)”, the “% Remaining at 60 and 120 minutes | 60” value amounted to 87.7%; the “% Remaining at 60 and 120 minutes | 120” value turned out to be 78.9%.
